Read-outs that look alike come from different tables or passages of the source.
Legend:
[1] = In vivo pharmacokinetics and brain distribution, single i.v. or p.o. dose; set-up: species or system male C57BL/6 mice; conditions: mice; for clearance / bioavailability: male, C57BL/6, mouse, plasma; for clearance: read-out: PK Clearance; for bioavailability: po, read-out: Oral Bioavailablility
Method: The pharmacokinetics and brain distribution of the compounds described herein was determined in male C57BL/6 mice following single intravenous or oral dose administration. A group of 54 male mice were divided into two groups of 27 mice. […] Blood samples were collected pre-dose and at 0.08, 0.25, 0.5, 1, 2, 4, 8, and 24 h post-dose (i.v.), and pre-dose, and at 0.25, 0.5, 1, 2, 4, 6, 8 and 24 h post-dose (p.o.). Blood was collected from sets of three mice at each time point in labeled microcentrifuge tubes containing K2EDTA as anticoagulant. Plasma samples were separated by centrifugation of whole blood and stored below −70° C. until bioanalysis. After collecting blood samples, mice were humanely euthanized by CO2 asphyxiation and brain was collected at the same time points. Following collection, the brain samples were washed in ice-cold phosphate buffer saline (pH 7.4), gently dried on filter paper, weighed and placed in polypropylene tubes. Further brain samples were homogenized using phosphate buffer saline pH 7.4 and the total homogenate volume was thrice the brain weight. The samples were then stored below −70° C. until bioanalysis. All samples were processed for analysis by protein precipitation using acetonitrile and analyzed with fit-for-purpose LC/MS/MS method (LLOQ: 1.01 ng/mL for plasma and brain). Pharmacokinetic parameters were calculated using the non-compartmental analysis tool of Phoenix WinNonlin (Version 6.3).

[2] = Plasma stability; type: in vitro ADME
[3] = Stability in SGF; type: in vitro ADME
[4] = test system: Line 61 ASYN transgenic mice; assay: Fecal boli counts in a novel environment; type: in vivo, mouse
Method: An earlier published study included a report that Line 61 ASYN transgenic mice have decreased colonic motility, fecal output, and weight (Wang, L. et al. Neurogastroenterol. Motil. 2012, 24(9), e425-436). For the present study, an assessment of fecal boli counts was conducted in conjunction with a spontaneous locomotor activity test session. At the conclusion of a five-minute test session, the experimenter counted the number of fecal boli present in the test chamber, and the results are presented in FIG. 9.

[5] = test system: oligomers in Line 61 ASYN transgenic mouse; assay: A11 antibody dot blot of oligomeric proteins in cortical homogenates; type: in vivo; conditions: 5 mg/kg; p<0.001 vs. vehicle-treated ASYN transgenic mice
Method: (§1) Example 1 was evaluated in a transgenic mouse model of PD overexpressing human wild-type ASYN under the Thy-1 promoter (also referred to as the Line 61 ASYN transgenic mouse), by administering Example […] 0, 1, or 5 mg/kg (i.p.) once daily (five days per week) for three months and then assessing PD-relevant sensorimotor performance, biochemical alterations, and neuropathological changes in ASYN and related proteins.
(§2) Biochemical evaluations of oligomeric proteins using A11 antibody dot blot methods (including ASYN) in cortical homogenates were performed.

[6] = test system: cardiac ASYN in Line 61 ASYN transgenic mice; assay: Post-mortem Western blot of cardiac ASYN; type: in vivo, mouse; conditions: p<0.0001 vs. vehicle-treated ASYN transgenic mice
From the text: Like bowel dysfunction, alterations in cardiac biochemistry and function may precede Parkinson's disease diagnosis by 20 years or more. Well-characterized functional alterations in PD patients include altered heart rate variability and orthostatic hypotension (Kaufmann, H. et al., Handbook Clin. Neurol. 2013, 117, 259-278; Jain, S. et al., Neurobiol. Dis. 2012, 46(3), 572-580; Senard, J. M. et al., Rev. Neurol. (Paris) 2010, 166(10), 779-784; Post, K. K. et al., Parkinsonism Relat. Disord. 2008, 14(7), 524-531). These functional changes are accompanied by pathological findings of loss of myocardial noradrenergic innervation and the presence of ASYN aggregates in cardiac autonomic nerves (Jellinger, K. A., J. Neurol. Sci. 2011, 310 (1-2), 107-111). […] For the present study, post-mortem Western blot evaluations of cardiac ASYN by Western blot analysis were performed to confirm the presence in ASYN transgenic cardiac tissue and to evaluate the effects of Example 1 on transgenic cardiac levels of ASYN (FIG. 10). There was a statistically significant increase in detected cardiac levels of ASYN in vehicle-treated ASYN transgenic mice relative to vehicle-treated non-transgenic control mice (***p<0.001).

[7] = test system: PDNG78 transgenic mice; assay: Longitudinal retinal imaging of ASYN-GFP; type: in vivo, mouse; conditions: 5 mg/kg i.p., after approximately 60 days through 90 days
Method: A total of four imaging sessions were conducted, including a baseline prior to starting treatments and three subsequent imaging sessions at approximately one-month intervals.

[8] = test system: ASYN in Line 61 ASYN transgenic mouse; assay: ASYN immunolabeling in cortical neuropil and neuronal cell bodies; type: in vivo; conditions: for alpha-synuclein immunolabeling in cortical neuropil: p<0.0001 vs. vehicle-treated ASYN transgenic mice
Method: These neuropathological findings were reconfirmed in the current study using the methods described by Masliah and colleagues. Example 1 administration (1 and 5 mg/kg dosing) produced statistically significant decreases in ASYN levels as determined by effects on ASYN immunolabeling (FIGS. 6 and 7). There was a statistically significant increase in ASYN immunolabeling with the Millipore anti-alpha-synuclein antibody in the cortical neuropil (****p<0.0001) (FIG. 6A) and in neuronal cell bodies of ASYN transgenic mice (**p<0.01) (FIG. 6B) relative to non-transgenic/vehicle controls.

[9] = test system: Line 61 ASYN transgenic mouse; assay: Round Beam Task, sensorimotor impairment; type: in vivo; conditions: for number of slips, Round Beam Task: Example 6A, three months, vs. vehicle-treated transgenic mice; for number of slips, Round Beam Motor Performance assay: Example 6B
From the text: The Round Beam Task was used to assess sensorimotor impairments, using number of slips as the primary outcome measure (FIG. 4).

[10] = test system: transgenic ASYN protein in Line 61 ASYN transgenic mouse; assay: Western Blot analysis of cerebral cortical and hippocampal brain homogenates; type: in vivo
Method: as §1, §2

Row | clearance ([1]; iv, at 10 mg/kg) | bioavailability ([1]; at 10 mg/kg) | B:P ratio (IV) ([1]; at 10 mg/kg) | B:P ratio (PO) ([1]; at 10 mg/kg) | Plasma Stability ([2]; @ 120 min) | Stability in SGF [3] | Compound | further results
1 | 69 mL/min/kg | 14% | 2.1 | 0.4 | – | – | CCCC[C@H](Cc1c[nH]c2ccccc12)NC(=O)c1cnc(N2CCN(C)CC2)s1 [Example 28, (R)-N-(1-(1H-Indol-3-yl)hexan-2-yl)-2-(4-methylpiperazin-1-yl)thiazole-5-carboxamide] | –
2 | 95 mL/min/kg | 100% | 0.4 | 0.1 | 25% @ | stable | CN1CCN(CCc2ncc(C(=O)NCCc3c[nH]c4ccccc34)s2)CC1 [Example 4, N-(2-(1H-Indol-3-yl)ethyl)-2-(2-(4-methylpiperazin-1-yl)ethyl)thiazole-5-carboxamide] | –
3 | – | 14% | 0.1 | 0.08 | – | unstable | CCCNC(=O)NC(Cc1c[nH]c2ccccc12)NC(=O)c1cnc(N2CCN(C)CC2)s1 (centres unmarked) [Comp. B, reference compound] | Plasma Stability ([2]; @ 60 min): 89% @; clearance ([1]; intravenous, at 10 mg/kg): 258 mL/min/kg
4 | – | 13% | – | 0.15 | – | – | CCCCC(Cc1c[nH]c2ccc(F)cc12)NC(=O)c1cnc(CCN2CCOCC2)s1 (centres unmarked) [Example 10, N-(1-(5-Fluoro-1H-indol-3-yl)hexan-2-yl)-2-(2-morpholinoethyl)thiazole-5-carboxamide] | clearance ([1]; intravenous, at 2 mg/kg): 75 mL/min/kg; B:P ratio (IV) ([1]; at 2 mg/kg): 0.8
5 | 24 mL/min/kg | 79% | 0.18 | 0.05 | 100% @ | stable | CCCCC(Cc1c[nH]c2ccccc12)NC(=O)c1cnc(CCN2CCN(C)CC2)s1 (centres unmarked) [Example 5, N-(1-(1H-Indol-3-yl)hexan-2-yl)-2-(2-(4-methylpiperazin-1-yl)ethyl)thiazole-5-carboxamide] | –
6 | 37 mL/min/kg | 57% | 1.4 | 0.3 | – | – | CCCC[C@@H](Cc1c[nH]c2ccccc12)NC(=O)c1cnc(N2CCN(C)CC2)s1 [Example 27, (S)-N-(1-(1H-Indol-3-yl)hexan-2-yl)-2-(4-methylpiperazin-1-yl)thiazole-5-carboxamide] | –
7 | 81 mL/min/kg | 53% | 2.0 | 0.4 | 100% @ | stable | CCCCC(Cc1c[nH]c2ccccc12)NC(=O)c1cnc(N2CCN(C)CC2)s1 (centres unmarked) [Example 1, N-(1-(1H-Indol-3-yl)hexan-2-yl)-2-(4-methylpiperazin-1-yl)thiazole-5-carboxamide] | number of fecal boli produced ([4]; ASYN transgenic mice, 0.5 mg/kg, p<0.05 vs. vehicle): restored function; number of fecal boli produced ([4]; ASYN transgenic mice, 1 mg/kg, p<0.001 vs. vehicle): restored function; number of fecal boli produced ([4]; non-transgenic mice): no effect; oligomers (A11 immunostaining) in cytosolic fraction of frontal cortex [5]: statistically significant decrease in oligomers; cardiac levels of ASYN ([6]; 0.5 mg/kg): statistically significant normalizations of ASYN levels; cardiac levels of ASYN ([6]; 1 mg/kg): statistically significant normalizations of ASYN levels; percentage of ASYN-GFP positive area in retinal images ([7]; p<0.001 vs. vehicle): decreased; number of ASYN-GFP positive particles in retinae ([7]; p<0.01 vs. vehicle): decreased; alpha-synuclein immunolabeling in cortical neuropil ([8]; 1 mg/kg): statistically significant decreases in alpha-synuclein immunolabeling; number of ASYN immunolabeled neuron cell bodies ([8]; 5 mg/kg): non-statistically significant decrease; alpha-synuclein immunolabeling in cortical neuropil ([8]; 5 mg/kg): statistically significant decreases in alpha-synuclein immunolabeling; number of slips, Round Beam Task ([9]; 1 mg/kg i.p. once daily): statistically significantly reductions in slips; number of slips, Round Beam Task ([9]; 5 mg/kg i.p. once daily): statistically significantly reductions in slips; number of slips, Round Beam Motor Performance assay ([9]; 0.5 mg/kg): non-statistically significant decrease in slips; number of slips, Round Beam Motor Performance assay ([9]; 1 mg/kg, p<0.01 vs. vehicle-treated ASYN transgenic mice): statistically significant improvement (decreased slips); transgenic ASYN protein levels [10]: statistically significant reductions
8 | – | – | – | 0.05 | – | stable | CCCCNC(=O)C(Cc1c[nH]c2ccccc12)NC(=O)c1cnc(N2CCNCC2)s1 (centres unmarked) [Comp. A, reference compound] | Plasma Stability ([2]; @ 60 min): 35% @; clearance ([1]; intravenous, at 10 mg/kg): 71 mL/min/kg
